Reference: US20120101083A1, “S1P1 AGONISTS COMPRISING A BICYCLIC N-CONTAINING RING” (GLAXO GROUP LIMITED, priority 2009, published 2012)
Counter-ions that a name gives are not always drawn.

biological target: T1, S1P1 receptor (S1P1 expressing RH7777 membranes) (Homo sapiens, UniProt P21453); experiment: S1P1 GTPγS assay; type: biochemical; conditions: tested in one of the above S1P1 assays (two GTPγS formats)
T1 construct: expressed in transfected cells; host or cells: RH7777 cells (membranes)
Method: The potencies and efficacies of the compounds of this invention for the S1P1 receptor can be determined by GTPγS assay performed on the human cloned receptor as described herein.
Membrane preparation for S1P1 GTPγS assay
All steps were performed at 4° C. Cells were homogenised within a glass Waring blender for 2 bursts of 15 secs in 200 mls of buffer (50 mM HEPES, 1 mM leupeptin, 25 μg/ml bacitracin, 1 mM EDTA, 1 mM PMSF, 2 μM pepstatin A). The blender was plunged into ice for 5 mins after the first burst and 10-40 mins after the final burst to allow foam to dissipate. The material was then spun at 500 g for 20 mins and the supernatant spun for 36 mins at 48,000 g. The pellet was resuspended in the same buffer as above but without PMSF and pepstatin A. The material was then forced through a 0.6 mm needle, made up to the required volume, (usually x4 the volume of the original cell pellet), aliquoted and stored frozen at −80° C.
S1P1 expressing RH7777 membranes (1.5 μg/well) membranes (1.5 μg/well) were homogenised by passing through a 23 G needle. These were then adhered to WGA-coated SPA beads (0.125 mg/well) in assay buffer (HEPES 20 mM, MgCl2 10 mM, NaCl 100 mM and pH adjusted to 7.4 using KOH 5M). GDP 10 μM FAC and saponin 90 μg/ml FAC were also added
After 30 minutes precoupling on ice, the bead and membrane suspension was dispensed into white Greiner polypropylene LV 384-well plates (5 μl/well), containing […] of compound. 5 μl/well [^35S]-GTPγS (0.5 nM for S1P1 or 0.3 nM for S1P3 final radioligand concentration) made in assay buffer was then added to the plates. The final assay cocktail (10.1 μl) was then sealed, spun on a centrifuge, then read immediately on a Viewlux instrument.
Alternatively, after 30 minutes precoupling on ice, the bead and membrane suspension was mixed with ^35S]-GTPγS (0.5 nM final radioligand concentration) in assay buffer (HEPES 20 mM, MgCl2 10 mM, NaCl 100 mM and pH adjusted to 7.4 using KOH 5M) in a 1:1 ratio. The bead, membrane and radioligand suspension was dispensed into white Greiner polypropylene low volume 384-well plates (10 μl/well), containing 0.1 μl of a solution of test compound in 100% DMSO. The final assay cocktail (10.1 μl) was then sealed, spun on a centrifuge, then read immediately on a Viewlux instrument.

T1 sequence (P21453 whole entry): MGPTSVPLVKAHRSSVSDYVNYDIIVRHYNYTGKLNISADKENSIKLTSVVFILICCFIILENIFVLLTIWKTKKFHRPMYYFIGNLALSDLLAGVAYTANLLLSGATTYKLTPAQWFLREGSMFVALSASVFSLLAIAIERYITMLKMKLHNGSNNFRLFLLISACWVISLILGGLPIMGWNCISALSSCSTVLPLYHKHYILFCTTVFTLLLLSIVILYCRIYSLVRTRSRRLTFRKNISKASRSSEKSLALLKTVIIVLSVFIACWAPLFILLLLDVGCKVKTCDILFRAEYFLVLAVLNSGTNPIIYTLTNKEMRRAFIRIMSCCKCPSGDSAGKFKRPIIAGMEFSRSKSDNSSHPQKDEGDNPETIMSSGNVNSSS

Row | SMILES | EC50 [µM]
1 | CNC(=O)CCCN1CCc2c(ccc(-c3nnc(-c4ccc(OC(C)C)c(C#N)c4)s3)c2C)C1 [Example 14, 4-[6-(5-{3-Cyano-4-[(1-methylethyl)oxy]phenyl}-1,3,4-thiadiazol-2-yl)-5-methyl-3,4-dihydro-2(1H)-isoquinolinyl]-N-methylbutanamide] | ≤ 1
2 | N#Cc1cc(-c2nc(-c3ccc4c(c3)CCN(C(=O)CN)CC4)no2)ccc1N1CCC(F)C1 (stereo not drawn) [Example 57, 2-(3-fluoro-1-pyrrolidinyl)-5-[3-(3-glycyl-2,3,4,5-tetrahydro-1H-3-benzazepin-7-yl)-1,2,4-oxadiazol-5-yl]benzonitrile] | ≤ 1
3 | Cc1c(-c2nnc(-c3ccc(OC(C)C)c(C#N)c3)s2)ccc2c1CCN(CCCC(N)=O)C2 [Example 13, 4-[6-(5-{3-Cyano-4-[(1-methylethyl)oxy]phenyl}-1,3,4-thiadiazol-2-yl)-5-methyl-3,4-dihydro-2(1H)-isoquinolinyl]butanamide] | ≤ 1
4 | Cc1c(-c2noc(-c3ccc(OC(C)C)c(C#N)c3)n2)ccc2c1CCN(C(CO)CO)C2 [Example 65, 5-(3-{2-[2-hydroxy-1-(hydroxymethyl)ethyl]-5-methyl-1,2,3,4-tetrahydro-6-isoquinolinyl}-1,2,4-oxadiazol-5-yl)-2-[(1-methylethyl)oxy]benzonitrile] | ≤ 1
5 | CC(C)Oc1ccc(-c2nc(-c3ccc4c(c3)CCN(C(=O)C(C)(C)N)CC4)no2)cc1C#N [Example 117, 5-{3-[3-(2-methylalanyl)-2,3,4,5-tetrahydro-1H-3-benzazepin-7-yl]-1,2,4-oxadiazol-5-yl}-2-[(1-methylethyl)oxy]benzonitrile] | ≤ 1

The remaining lines, values ahead:

Row | EC50 [µM] | SMILES
6 | ≤ 0.1 | Cc1c(-c2nnc(-c3ccc(OC(C)C)c(C#N)c3)s2)ccc2c1CCN(CCC(=O)N(C)C)C2 [Example 12, 3-[6-(5-{3-Cyano-4-[(1-methylethyl)oxy]phenyl}-1,3,4-thiadiazol-2-yl)-5-methyl-3,4-dihydro-2(1H)-isoquinolinyl]-N,N-dimethylpropanamide]
7 | ≤ 0.1 | CC(C)Oc1ccc(-c2nc(-c3cccc4c3CCN(CC(O)CO)CC4)no2)cc1C#N (stereo not drawn) [Example 35, 5-{3-[3-(2,3-Dihydroxypropyl)-2,3,4,5-tetrahydro-1H-3-benzazepin-6-yl]-1,2,4-oxadiazol-5-yl}-2-[(1-methylethyl)oxy]benzonitrile hydrochloride]
8 | ≤ 0.1 | CC(C)Oc1ccc(-c2nc(-c3ccc4c(c3)CCN(CCCO)CC4)no2)cc1C#N [Example 20, 5-{3-[3-(3-Hydroxypropyl)-2,3,4,5-tetrahydro-1H-3-benzazepin-7-yl]-1,2,4-oxadiazol-5-yl}-2-[(1-methylethyl)oxy]benzonitrile]
9 | ≤ 0.1 | CNC(=O)CCN1CCc2c(ccc(-c3nnc(-c4ccc(OC(C)C)c(C#N)c4)s3)c2C)C1 [Example 11, 3-[6-(5-{3-Cyano-4-[(1-methylethyl)oxy]phenyl}-1,3,4-thiadiazol-2-yl)-5-methyl-3,4-dihydro-2(1H)-isoquinolinyl]-N-methylpropanamide]
10 | ≤ 0.1 | CC(C)Oc1ncc(-c2nc(-c3ccc4c(c3)CCN(CC(O)CO)CC4)no2)cc1C#N (stereo in doubt) [Example 97, 5-(3-{3-[(2R)-2,3-dihydroxypropyl]-2,3,4,5-tetrahydro-1H-3-benzazepin-7-yl}-1,2,4-oxadiazol-5-yl)-2-[(1-methylethyl)oxy]-3-pyridinecarbonitrile]
11 | ≤ 0.1 | CC(C)Oc1ccc(-c2nc(-c3ccc4c(c3)CCN(C(=O)CNCCO)CC4)no2)cc1C#N [Example 86, 5-(3-{3-[N-(2-hydroxyethyl)glycyl]-2,3,4,5-tetrahydro-1H-3-benzazepin-7-yl}-1,2,4-oxadiazol-5-yl)-2-[(1-methylethyl)oxy]benzonitrile hydrochloride]
12 | ≤ 0.1 | CC(C)Oc1ccc(-c2nc(-c3ccc4c(c3)CCN(C(=O)[C@H](N)[C@@H](C)O)CC4)no2)cc1C#N [Example 58, 5-[3-(3-D-allothreonyl-2,3,4,5-tetrahydro-1H-3-benzazepin-7-yl)-1,2,4-oxadiazol-5-yl]-2-[(1-methylethyl)oxy]benzonitrile]
13 | ≤ 0.1 | CC(C)Nc1ccc(-c2nc(-c3ccc4c(c3)CCN(CC(O)CO)CC4)no2)cc1C#N (stereo not drawn) [Example 49, 5-{3-[3-(2,3-dihydroxypropyl)-2,3,4,5-tetrahydro-1H-3-benzazepin-7-yl]-1,2,4-oxadiazol-5-yl}-2-[(1-methylethyl)amino]benzonitrile]
14 | ≤ 0.01 | CC(C)Oc1ncc(-c2nc(-c3ccc4c(c3)CCN(C[C@H](O)CO)CC4)no2)cc1C#N [Example 96, 5-(3-{3-[(2S)-2,3-dihydroxypropyl]-2,3,4,5-tetrahydro-1H-3-benzazepin-7-yl}-1,2,4-oxadiazol-5-yl)-2-[(1-methylethyl)oxy]-3-pyridinecarbonitrile]
15 | ≤ 0.1 | N#Cc1cc(-c2nc(-c3ccc4c(c3)CCN(CC(O)CO)CC4)no2)ccc1OC(CF)CF (stereo not drawn) [Example 60, 5-{3-[3-(2,3-dihydroxypropyl)-2,3,4,5-tetrahydro-1H-3-benzazepin-7-yl]-1,2,4-oxadiazol-5-yl}-2-{[2-fluoro-1-(fluoromethyl)ethyl]oxy}benzonitrile]

biological target: T2, S1P1 (PathHunter CHO-K1 EDG1 β-Arrestin cell line) (Homo sapiens, UniProt P21453); experiment: S1P-1 β-Arrestin recruitment assay; type: cell-based; conditions: CHO-K1 EDG1 β-Arrestin cells, chemi-luminescence
T2 construct: host or cells: PathHunter CHO-K1 EDG1 β-Arrestin cell line
Method: S1P-1 β-Arrestin Recruitment Assay
β-Arrestin recruitment assays were carried out using the PathHunter CHO-K1 EDG1
β-Arrestin cell line (DiscoveRx Corporation) in a chemi-luminescence detection assay. This cell line stably expresses β-Arrestin 2 and S1P1 fused to complementing portions of β-galactosidase (‘EA’ and ‘pro-link’, respectively) which associate upon Arrestin recruitment to form functional β-galactosidase enzyme.
Cells were grown to 80% confluency in Growth Medium (F12 nutrient HAMS supplemented with 10% heat-inactivated USA FBS, 1% L-glutamax, 800 μg/ml Geneticin and 300 μg/ml Hygromycin). Cells were harvested from the flask using Enzyme Free Cell Dissociation Buffer (Gibco) and washed from flasks with Optimem solution (Gibco). Cells were then centrifuged at 1000 rpm for 2-3 min and resuspended in Assay Buffer (Prepared from Sigma kit H1387 supplemented with 20 ml/L HEPES, 4.7 ml/L NaHCO3, 0.1% pluronic acid F-68 solution, 0.1% BSA and adjusted to pH 7.4 using sodium hydroxide at 1×10^6 cells/ml. Cells were dispensed into assay plates containing compounds (100n1/well of a solution of test compound in 100% DMSO) at 1×10^4 cells/well and incubated at 37° C./5% CO2 for 90 min followed by 15 min at room temperature. 5 μl detection mix (1 part Galacton Star, 5 parts Emerald II, 19 parts Assay Buffer; DiscoveRx) were added per well and the plates incubated at room temperature for 60 min. Luminescence was quantified using a Viewlux plate reader.

T2 sequence (P21453 whole entry): as above
T2 sequence (P32121 whole entry partner): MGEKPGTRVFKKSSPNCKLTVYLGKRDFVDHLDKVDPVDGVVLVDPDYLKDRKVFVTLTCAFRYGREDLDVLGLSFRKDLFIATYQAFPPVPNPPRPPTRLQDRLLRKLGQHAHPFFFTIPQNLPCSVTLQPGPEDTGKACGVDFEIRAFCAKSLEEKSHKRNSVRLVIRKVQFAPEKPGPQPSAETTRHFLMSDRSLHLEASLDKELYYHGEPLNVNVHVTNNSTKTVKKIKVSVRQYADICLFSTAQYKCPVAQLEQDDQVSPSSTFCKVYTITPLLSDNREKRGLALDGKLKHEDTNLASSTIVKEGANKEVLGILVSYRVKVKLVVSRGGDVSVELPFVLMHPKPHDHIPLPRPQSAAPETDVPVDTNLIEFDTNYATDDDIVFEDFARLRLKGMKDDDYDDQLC

Row | EC50 [µM] | SMILES
16 | ≤ 0.01 | CC(C)Oc1ccc(-c2nc(-c3ccc4c(c3)CCN(C[C@@H](O)C(=O)N[C@H](C)CO)CC4)no2)cc1C#N [Example 165, (2R)-3-[7-(5-{3-cyano-4-[(1-methylethyl)oxy]phenyl}-1,2,4-oxadiazol-3-yl)-1,2,4,5-tetrahydro-3H-3-benzazepin-3-yl]-2-hydroxy-N-(1R)-2-hydroxy-1-methylethyl]propanamide hydrochloride]
17 | ≤ 0.01 | CC(C)Oc1ccc(-c2nc(-c3cccc4c3CCN(C(CO)CO)C4)no2)cc1C#N [Example 180, 5-(3-{2-[2-hydroxy-1-(hydroxymethyl)ethyl]-1,2,3,4-tetrahydro-5-isoquinolinyl}-1,2,4-oxadiazol-5-yl)-2-[(1-methylethyl)oxy]benzonitrile hydrochloride]
18 | ≤ 0.01 | CC(C)Oc1ccc(-c2nc(-c3cccc4c3CCN(C[C@@H](O)CO)C4)no2)cc1C#N [Example 178, 5-(3-{2-[(2R)-2,3-dihydroxypropyl]-1,2,3,4-tetrahydro-5-isoquinolinyl}-1,2,4-oxadiazol-5-yl)-2-[(1-methylethyl)oxy]benzonitrile hydrochloride]
19 | ≤ 0.1 | Cc1c(-c2noc(-c3cnc(OC(C)C)c(Cl)c3)n2)ccc2c1CCN(C(CO)CO)C2 [Example 144, 2-[6-(5-{5-chloro-6-[(1-methylethyl)oxy]-3-pyridinyl}-1,2,4-oxadiazol-3-yl)-5-methyl-3,4-dihydro-2(1H)-isoquinolinyl]-1,3-propanediol]
20 | ≤ 0.01 | Cc1c(-c2noc(-c3ccc(OC(C)C)c(C#N)c3)n2)ccc2c1CCN(C(=O)CN[C@H](C)CO)C2 [Example 128]
21 | ≤ 0.01 | Cc1c(-c2noc(-c3ccc(OC(C)C)c(C#N)c3)n2)ccc2c1CCN(C(=O)CNCCO)C2 [Example 131, formic acid-5-(3-{2-[N-(2-hydroxyethyl)glycyl]-5-methyl-1,2,3,4-tetrahydro-6-isoquinolinyl}-1,2,4-oxadiazol-5-yl)-2-[(1-methylethyl)oxy]benzonitrile (1:1)]
